Results as given in PMC10825133, “Repurposing proteasome inhibitors for improved treatment of triple-negative breast cancer” (Cell Death Discovery, 2024).

Assays:
[1] = tested on: HCC38 cells; experiment: Resazurin-based cell viability assay, monotherapy drug screen; parameters: species or system human; AUC: scale not given here; conditions: HCC38; for AUC: area under the dose response curve, 24 h; for GRmax: drug efficacy at highest tested dose (<0 cytotoxic, 0 cytostatic, >0 partial growth inhibition)
Description: (§1) Eighteen pharmaceutical compounds were purchased from Selleckchem. […] The stock solutions were stored at -80°C. […] New drug plates were prepared for each drug screen.
(§2) To determine the optimal seeding density and ensure that the cells were in the exponential phase during the duration of the experiment (approx. 52h), each cell line (BT-549, CAL-148, HCC1806, HCC38, HCC70, MCF-10A, MCF-7, MDA-MB-436, MDA-MB-453, and MDA-MB-468) was seeded at different concentrations (1000 to 16000 cells) per 96-well, as previously described. Cell viability was measured daily (day 0 [plating day] to day 4) using 0.2 mg/ml resazurin solution prepared from resazurin sodium salt (Fisher Scientific) dissolved in sterile 1xPBS (ThermoFisher Scientific). Before use, the resazurin solution was brought to RT before 10 µl (10% of cell medium volume) was added to each 96-well and incubated for 4h at 37°C. The absorbance was measured with a 560 nm excitation filter and a 615 nm emission filter in a Wallac 1420 VICTOR2™ microplate reader (Perkin Elmer). The slope of the curve was used to determine the optimal seeding density, i.e., the highest seeding density with linear growth between days 1 and 3.

[2] = tested on: HCC70 cells; experiment: as above; parameters: species or system human; AUC: scale not given here; conditions: HCC70; for AUC: area under the dose response curve, 24 h; for GRmax: drug efficacy at highest tested dose (<0 cytotoxic, 0 cytostatic, >0 partial growth inhibition)
Description: as §1, §2

[3] = tested on: HCC1806 cells; experiment: as above; parameters: species or system human; AUC: scale not given here; conditions: HCC1806; for AUC: area under the dose response curve, 24 h; for GRmax: drug efficacy at highest tested dose (<0 cytotoxic, 0 cytostatic, >0 partial growth inhibition)
Description: as §1, §2

[4] = tested on: MDA-MB-436 cells; experiment: as above; parameters: species or system human; AUC: scale not given here; conditions: MDA-MB-436; for AUC: area under the dose response curve, 24 h; for GRmax: drug efficacy at highest tested dose (<0 cytotoxic, 0 cytostatic, >0 partial growth inhibition)
Description: as §1, §2

[5] = tested on: MCF-7 cells; experiment: as above; parameters: species or system human; AUC: scale not given here; conditions: MCF-7; for AUC: area under the dose response curve, 24 h; for GRmax: drug efficacy at highest tested dose (<0 cytotoxic, 0 cytostatic, >0 partial growth inhibition)
Description: as §1, §2

[6] = tested on: MCF-10A cells; experiment: as above; parameters: species or system human; AUC: scale not given here; conditions: for AUC: area under the dose response curve, 24 h; for GRmax: drug efficacy at highest tested dose (<0 cytotoxic, 0 cytostatic, >0 partial growth inhibition)
Description: as §1, §2

[7] = tested on: MDA-MB-468 cells; experiment: as above; parameters: species or system human; AUC: scale not given here; conditions: MDA-MB-468; for AUC: area under the dose response curve, 24 h; for GRmax: drug efficacy at highest tested dose (<0 cytotoxic, 0 cytostatic, >0 partial growth inhibition)
Description: as §1, §2

[8] = tested on: BT-549 cells; experiment: as above; parameters: species or system human; AUC: scale not given here; conditions: BT-549; for AUC: area under the dose response curve, 24 h; for GRmax: drug efficacy at highest tested dose (<0 cytotoxic, 0 cytostatic, >0 partial growth inhibition)
Description: as §1, §2

[9] = tested on: MDA-MB-453 cells; experiment: as above; parameters: species or system human; AUC: scale not given here; conditions: MDA-MB-453; for AUC: area under the dose response curve, 24 h; for GRmax: drug efficacy at highest tested dose (<0 cytotoxic, 0 cytostatic, >0 partial growth inhibition)
Description: as §1, §2

[10] = tested on: eight TNBC cell lines (BT-549, CAL-148, HCC1806, HCC38, HCC70, MDA-MB-436, MDA-MB-453, MDA-MB-468); experiment: Monotherapy drug screen, mean across the TNBC cell lines
Description: (§3) Eighteen pharmaceutical compounds were purchased from Selleckchem (Supplementary Table 2). Stock solutions were prepared using dimethyl sulfoxide (DMSO; Merck), physiological saline (sodium chloride 0.9%) or Milli-Q water, and stored at −80 °C. […] Matched concentration solvent vehicle controls were used for each drug concentration. The drug screens were performed in triplicate and repeated three (monotherapy) or two (combination therapy) times (Fig. 7).
(§4) The optimal seeding density per 96-well was determined for each cell line as previously described. The cells were seeded at a density of 4.0 × 10^3 to 7.5 × 10^3 (cell type dependent) in 96-well clear, flat-bottom microplates (Corning Life Sciences, Sigma-Aldrich) in 100 µl complete culture medium (Supplementary Table 1) and cultured for 24 h. Cell viability was determined using the resazurin assay in untreated cells at the time of plating (t = 0) and treated cells after 24 h drug treatment (Fig. 7). Percentage cell viability was calculated as 100% × (absorbance of treated cells – absorbance of background controls) / (absorbance of matched solvent vehicle controls – absorbance of background controls). The area under the curve (AUC), half-maximal inhibitory concentration (IC50), drug potency (GR50), and drug efficacy (GRmax) were determined for each compound using the GRmetrics (version 1.20.0) package in R. The monotherapy data were evaluated with the IDACombo (version 1.0.2) package in R to predict potential drug combinations (Table 1). SynergyFinder (version 3.2.10) package in R was used to identify synergistic drug combinations.
(§5) Eighteen pharmaceutical compounds were purchased from Selleckchem. […] The solubility of the compound was enhanced by pre-heating the solvent (lukewarm), if necessary. […] The stock solutions were stored at -80°C. […] Matched concentration solvent vehicle controls were used for each drug concentration. The drug screens were performed in triplicate and repeated three times for the monotherapies and twice for the combination treatments. The drug(s) and corresponding controls were plated in 96-well PCR plates (VWR) and stored at -20°C (Fig. 6). The drug plates were thawed, centrifuged (3000 rpm for 30s), and acclimatized to RT before the drugs were added to the cells. New drug plates were prepared for each drug screen.
(§6) The cells were seeded at a density of 4.0x10^3 to 7.5x10^3 (cell type-dependent) in 96-well clear, flat-bottom microplates (Corning Life Sciences, Sigma-Aldrich) in 100 µl culture medium supplemented with 10% FBS and cultured for 24h. Cell viability was determined using the resazurin assay after 24h drug treatment (Fig. 6). Percentage cell viability was calculated as 100% × (absorbance of treated cells – absorbance of background controls) / (absorbance of matched solvent vehicle controls – absorbance of background controls). Normalized growth rate inhibition (GR) was assessed using the absorbance of untreated cells after the time of plating (t = 0). […] For combination treatment, the monotherapy data were evaluated with the IDACombo (version 1.0.2)[20] package in R to predict potential drug combinations (Table 1). SynergyFinder (version 3.2.10)[21] package in R was used to identify synergistic drug combinations.

[11] = tested on: CAL-148 cells; experiment: Resazurin-based cell viability assay, monotherapy drug screen; parameters: species or system human; AUC: unit not given beside the values; conditions: CAL-148; for AUC: area under the dose response curve, 24 h; for GRmax: drug efficacy at highest tested dose (<0 cytotoxic, 0 cytostatic, >0 partial growth inhibition)
Description: as §3, §4, §5
Cell viability was measured daily (day 0 [plating day] to day 4) using 0.2 mg/ml resazurin solution prepared from resazurin sodium salt (Fisher Scientific) dissolved in sterile 1xPBS (ThermoFisher Scientific). Before use, the resazurin solution was brought to RT before 10 µl (10% of cell medium volume) was added to each 96-well and incubated for 4h at 37°C. […] The slope of the curve was used to determine the optimal seeding density, i.e., the highest seeding density with linear growth between days 1 and 3.
as §6

Compound	AUC [1]	GRmax [1]	AUC [2]	GRmax [2]	AUC [3]	GRmax [3]	AUC [4]	GRmax [4]	AUC [5]	GRmax [5]	AUC [6]	GRmax [6]	AUC [7]	GRmax [7]	AUC [8]	GRmax [8]	AUC [9]	GRmax [9]	cytotoxic effect at the highest dose [10]	AUC [11]	other results
CCCc1ccc(OCC(=O)N(Cc2nc(-c3cccnc3)no2)C(C)C)cc1 [PI-1840]	1.0	1.0	1.0	1.0	1.0	0.98	1.0	1.0	1.0	0.97	1.0	1.0	0.98	0.96	0.99	1.0	1.0	0.93	lowest cytotoxic effects	1.0	GRmax [11]: 1.0
O=[N+]([O-])c1ccc(S(=O)(=O)N2CCN(c3ccnc4cc(Cl)ccc34)CC2)c([N+](=O)[O-])c1 [VR-23]	1.0	0.95	0.98	0.82	1.0	0.93	1.0	1.0	0.98	0.82	1.0	1.0	0.97	0.74	0.98	0.85	0.99	0.40	lowest cytotoxic effects	1.0	IC50 ([5]; 24 h drug treatment, read-out: IC50): 6 µM; GRmax [11]: 0.95
